Source: patent US8598374B2, “GPR120 receptor agonists and uses thereof” (Metabolex, Inc, priority 2008, dated 2013)

Biological target: T1, human GPR120 (Homo sapiens, UniProt Q5NUL3)
T1 construct: Flag (DYKDDDDK) (N); host or cells: HEK293 cells co-expressing Gqi5
T1 sequence (Q5NUL3 1-361): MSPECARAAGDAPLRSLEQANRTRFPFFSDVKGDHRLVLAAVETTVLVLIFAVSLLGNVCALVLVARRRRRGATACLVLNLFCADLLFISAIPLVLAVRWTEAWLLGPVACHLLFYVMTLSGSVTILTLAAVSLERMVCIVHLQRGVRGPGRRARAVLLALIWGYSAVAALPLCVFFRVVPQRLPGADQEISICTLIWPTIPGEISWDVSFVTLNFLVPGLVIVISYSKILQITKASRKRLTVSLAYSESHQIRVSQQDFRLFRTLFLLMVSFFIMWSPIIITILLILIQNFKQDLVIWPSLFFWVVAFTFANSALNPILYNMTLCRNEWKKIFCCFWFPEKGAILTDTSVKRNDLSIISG
Assay: Intracellular Ca2+ assay (FLIPR Calcium 4, Flexstation) in human GPR120 stable cell line
Type: cell-based
Settings: for EC50: human GPR120 stably expressing cells, eight concentrations from 0.00001 to 20 μM; for % Activity (Ex. 25 Reference Compound): % activity at 2.5 μM compared to the maximal activity of the compound of Example 25 at 2.5 μM, HEK293 cells co-expressing Gqi5
Description: Human GPR120 stable cell line was purchased from Multispan Inc (26219 Eden Landing Road, Hayward, Calif. 94545). This GPR120 cell line was generated in HEK293 cells co-expressing Gqi5. In this cell line, the Flag epitope tag (DYKDDDDK) was fused to the amino terminus of human GPR120 protein.
The concentration of intracellular Ca^2+ was measured as described below. Human GPR120 cells were plated in 96 well plates (Poly-D-Lysine coated black/clear Plate, Greiner Bio-One) at 70,000 cells per well and cultured overnight in conditions of 37° C. and 5% CO2. A Ca^2+ assay dye stock solution was prepared by adding 10 mL of assay buffer (HBSS/20 mM HEPES, pH 7.4) to FLIPR Calcium 4 Assay Bulk Kit (Molecular Devices). The 10 mL of Ca^2+ assay dye solution was prepared by further diluting 0.5 mL of Ca^2+ assay dye stock solution with 10 mL of assay buffer. The medium of the cells was removed and immediately 100 μL of the Ca^2+ assay dye solution was dispensed into each well followed by incubation at 37° C. and 5% CO2 for 50 minutes to incorporate the Ca^2+ dye into the cells. The cell plate was then placed in the Flexstation (Molecular Devices) for 20 minutes at 37° C. Compounds were dissolved in 100% DMSO and diluted to desired concentrations with assay buffer and placed in the Flexstation simultaneously with the cell plate for 20 minute incubation at 37° C. prior to reading. Fluorescence intensity was measured immediately following compound addition (25 μL/well) on the Flexstation at an excitation wavelength of 485 nm and an emission wavelength of 525 with 515 nm auto cutoff. The resulting increase in fluorescence intensities corresponds to increases in intracellular Ca^2+ levels.
Compounds were dissolved in 100% DMSO to a concentration of 20 mM to provide stock solutions. To determine activity against human GPR120, compounds were added with human GPR120 stably expressing cells (described above), at eight desired concentrations ranging from 0.00001 to 20 μM, in 96 well plates and fluorescence intensities were measured for 90 seconds with 2-second intervals. An EC50 value (concentration of the GPR120 agonist where 50% of the agonist's maximal activity is observed) was calculated using the changes (Max-Min) of fluorescence intensity.
To determine percent activity for a tested compound, the fluorescence intensity value obtained at a particular concentration were compared to the maximal fluorescence intensity value obtained for reference compound GW9508 (4-[[(3-phenoxyphenyl)methyl]amino]benzene propanoic acid; British Journal of Pharmacology 2006 148, 619-628) or the compound of Example 25. When GW9508 was used as the reference compound, the maximal activity of GW9508 at 6.7 μM was designated as 100% activity. When the compound of Example 25 was used as the reference compound, the maximal activity of the compound of Example 25 at 2.5 μM was designated as 100% activity. Typically, the GW9508 activity reached a maximum at a concentration of approximately 6.7 μM and typically the compound of Example 25 reached a maximum activity at approximately 2.5 μM.

Row | Structure (SMILES) | EC50 | % Activity (Ex. 25 Reference Compound)
1 | COc1cc(CCC(=O)O)c(Br)cc1OCc1cc(Cl)cc2c1OC(C)(C)C2 [Example 57, 3-(2-bromo-4-((5-chloro-2,2-dimethyl-2,3-dihydrobenzofuran-7-yl)methoxy)-5-methoxyphenyl)propanoic acid] | 1 to 10 µM | 
2 | CC1(C)Cc2cc(F)cc(COc3ccc(SCC(=O)O)cc3)c2O1 [Example 58, 2-((4-((5-fluoro-2,2-dimethyl-2,3-dihydrobenzofuran-7-yl)methoxy)phenyl)thio)-acetic acid] | 1 to 10 µM | 
3 | CC1(C)Cc2cc(Cl)cc(COc3ccc(SCC(=O)O)cc3)c2O1 [Example 59, 2-((4-((5-chloro-2,2-dimethyl-2,3-dihydrobenzofuran-7-yl)methoxy)phenyl)thio)-acetic acid] | 1 to 10 µM | 117.58%
4 | CCc1cc(OCc2cc(F)cc3c2OC(C)(C)C3)ccc1/C=C/C(=O)O [Example 60, (E)-3-(2-ethyl-4-((5-fluoro-2,2-dimethyl-2,3-dihydrobenzofuran-7-yl)methoxy)phenyl)acrylic acid] | 1 to 10 µM | 
5 | CC1(C)Cc2cc(F)cc(COc3ccc(CCC(=O)O)c(C(F)(F)F)c3)c2O1 [Example 61, 3-(4-((5-fluoro-2,2-dimethyl-2,3-dihydrobenzofuran-7-yl)methoxy)-2-(trifluoromethyl)phenyl)propanoic acid] | 1 to 10 µM | 
6 | CC1(C)Cc2cc(Cl)cc(COc3ccc(CCC(=O)O)c(C(F)(F)F)c3)c2O1 [Example 62, 3-(4-((5-chloro-2,2-dimethyl-2,3-dihydrobenzofuran-7-yl)methoxy)-2-(trifluoromethyl)phenyl)propanoic acid] | 1 to 10 µM | 
7 | CC1(C)Cc2cc(F)cc(COc3ccc(CCC(=O)O)c4c3CCC4)c2O1 [Example 63, 3-(7-((5-fluoro-2,2-dimethyl-2,3-dihydrobenzofuran-7-yl)methoxy)-2,3-dihydro-1H-inden-4-yl)propanoic acid] | 1 to 10 µM | 95.03%
8 | CC1(C)Cc2cc(Cl)cc(COc3ccc(CCC(=O)O)c4c3CCC4)c2O1 [Example 64, 3-(7-((5-chloro-2,2-dimethyl-2,3-dihydrobenzofuran-7-yl)methoxy)-2,3-dihydro-1H-inden-4-yl)propanoic acid] | 1 to 10 µM | 
9 | C[C@H](Cc1ccc(OCc2cc(F)cc3c2OC(C)(C)C3)cc1)C(=O)O [Example 65, (R)-3-(4-((5-fluoro-2,2-dimethyl-2,3-dihydrobenzofuran-7-yl)methoxy)phenyl)-2-methylpropanoic acid] | 1 to 10 µM | 141.04%
10 | C[C@@H](Cc1ccc(OCc2cc(F)cc3c2OC(C)(C)C3)cc1)C(=O)O [Example 66, (S)-3-(4-((5-fluoro-2,2-dimethyl-2,3-dihydrobenzofuran-7-yl)methoxy)phenyl)-2-methylpropanoic acid] | 1 to 10 µM | 
11 | CC(Cc1ccc(NCc2cc(F)cc3c2OC(C)(C)C3)cc1)C(=O)O (stereo not shown) [Example 67] | 1 to 10 µM | 141.82%
12 | CC(Cc1ccc(NC(=O)c2cc(F)cc3c2OC(C)(C)C3)cc1)C(=O)O (stereo not shown) [Example 68, 3-(4-(5-fluoro-2,2-dimethyl-2,3-dihydrobenzofuran-7-carboxamido)phenyl)-2-methylpropanoic acid] |  | 69.03%
13 | CCOC(Cc1cc(F)c(OCc2cc(F)cc3c2OC(C)(C)C3)c(F)c1)C(=O)O (stereo not shown) [Example 69, 3-(3,5-difluoro-4-((5-fluoro-2,2-dimethyl-2,3-dihydrobenzofuran-7-yl)methoxy)phenyl)-2-ethoxypropanoic acid] |  | 78.46%
14 | CC1(C)Cc2cc(F)cc(CCc3ccc(OCC(=O)O)cc3)c2O1 [Example 70, 2-(4-(2-(5-fluoro-2,2-dimethyl-2,3-dihydrobenzofuran-7-yl)ethyl)phenoxy)acetic acid] |  | 117.72%
15 | CC1(C)Cc2cc(Cl)cc(COc3ccc(CCC(=O)O)c(-c4ccccc4)c3)c2O1 [Example 71, 3-(5-((5-chloro-2,2-dimethyl-2,3-dihydrobenzofuran-7-yl)methoxy)-[1,1′-biphenyl]-2-yl)propanoic acid] |  | 133.8%
